In PubChem BioAssay AID720620 (The Scripps Research Institute Molecular Screening Center, 2013):
The source made the active and inactive calls.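 How the source made its calls: active means at least 50% inhibition of the human mitochondrial methionine-charging enzyme at 10 µM; inactive means under 50% inhibition at 10 µM.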

Target: Methionine--tRNA ligase, mitochondrial (Homo sapiens) (UniProt Q96GW9)
Experiment: inhibition of human MARS2 tRNA charging – biochemical, radioactivity, [3H]methionine, two concentrations, counter-screen for T. brucei MetRS inhibitor project, late-stage follow-up (AID 720620)
Settings: recombinant human mitochondrial MetRS, [3H]Met-tRNA charging, 60 min, stronger effect = higher value

Chain of Methionine--tRNA ligase, mitochondrial (Homo sapiens) (Q96GW9 whole entry, looked up): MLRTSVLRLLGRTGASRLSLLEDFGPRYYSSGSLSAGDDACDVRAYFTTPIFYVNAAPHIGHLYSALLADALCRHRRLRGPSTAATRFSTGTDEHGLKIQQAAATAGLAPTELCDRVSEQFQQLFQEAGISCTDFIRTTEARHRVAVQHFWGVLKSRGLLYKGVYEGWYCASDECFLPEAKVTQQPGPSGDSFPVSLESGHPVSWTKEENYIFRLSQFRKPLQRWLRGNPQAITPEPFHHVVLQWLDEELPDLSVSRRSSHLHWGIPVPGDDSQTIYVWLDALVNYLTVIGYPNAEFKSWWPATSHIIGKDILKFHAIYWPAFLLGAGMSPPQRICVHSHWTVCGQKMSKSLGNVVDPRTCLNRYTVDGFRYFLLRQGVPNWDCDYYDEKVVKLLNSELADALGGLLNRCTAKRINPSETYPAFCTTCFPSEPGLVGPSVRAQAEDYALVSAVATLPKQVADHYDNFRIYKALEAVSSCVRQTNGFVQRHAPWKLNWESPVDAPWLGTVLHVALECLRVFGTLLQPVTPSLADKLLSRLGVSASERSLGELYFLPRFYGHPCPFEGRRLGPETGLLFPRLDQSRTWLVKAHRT

Question: What does the source list for COc1ccc2[nH]c3nc(SCC(=O)Nc4ccc5c(c4)OCO5)nnc3c2c1?
Answer: inhibition (at 10 µM): 24.5% (inactive); inhibition (inhibition, at 1 µM): 14.3%

Question: What does the source list for COc1ccc(CNC(=O)CSc2nnc3c(n2)[nH]c2ccc(F)cc23)cc1?
Answer: inhibition (at 10 µM): -12% (inactive); inhibition (inhibition, at 1 µM): -29.7%

Question: Which results are given for CC(=O)c1ccc(N2CCN(C(=O)CCCn3c(=O)[nH]c4ccc(Br)cc4c3=O)CC2)cc1?
Answer: inhibition (at 10 µM): 7.87% (inactive); inhibition (inhibition, at 1 µM): -14.1%

Question: How did the inhibition (at 10 µM) turn out when O=C(NCc1nc2ccccc2[nH]1)C1=C[C@@H](C2CC2)C[C@@H](OCc2ccc(CO)cc2)O1 was run?
Answer: 5.87% (inactive)

Question: What about the inhibition (inhibition, at 1 µM) of the same compound?
Answer: -11.4%

Question: O=C(NCc1nc2ccccc2[nH]1)C1=C[C@H](c2ccc(Br)cc2)C[C@H](OCc2ccc(CO)cc2)O1 was tested. Which inhibition (at 10 µM) did it give?
Answer: 17.2% (inactive)

Question: And the inhibition (inhibition, at 1 µM)?
Answer: 0.59%

Question: What does the source list for COc1ccccc1NS(=O)(=O)c1cccc(NC(=O)Nc2ccccc2)c1?
Answer: inhibition (at 10 µM): 19.1% (inactive); inhibition (inhibition, at 1 µM): -9.69%

Question: For COc1cccc(NC(=O)CSc2nnc3c(n2)[nH]c2ccc(C)cc23)c1, which inhibition (at 10 µM) is on record?
Answer: 40.4% (inactive)

Question: And the inhibition (inhibition, at 1 µM)?
Answer: 49.7%

Question: For CCO[C@@H]1OC(C(=O)NCc2nc3ccccc3[nH]2)=C[C@H](c2ccc(Br)cc2)[C@H]1CCCO, which inhibition (at 10 µM) is on record?
Answer: -6.53% (inactive)

Question: What about the inhibition (inhibition, at 1 µM) of the same compound?
Answer: -4.89%

Question: What does the source list for O=C(NCc1nc2ccccc2[nH]1)C1=C[C@H](c2ccc3c(c2)OCO3)C[C@H](OCCCCO)O1?
Answer: inhibition (at 10 µM): 10.2% (inactive); inhibition (inhibition, at 1 µM): -10.7%

Question: O=C(Cn1cc(C(=O)C(=O)N2CCOCC2)c2ccccc21)Nc1cccc(C(F)(F)F)c1 was tested. Which inhibition (at 10 µM) did it give?
Answer: -6.56% (inactive)

Question: What about the inhibition (inhibition, at 1 µM) of the same compound?
Answer: -22.4%

Question: Which inhibition (at 10 µM) does the source give for O=C1[C@@H]2Cc3c([nH]c4ccccc34)C(c3cccc([N+](=O)[O-])c3)N2C(=O)CN1CCCO (stereo partly drawn) here?
Answer: 4.46% (inactive)

Question: What about the inhibition (inhibition, at 1 µM) of the same compound?
Answer: -17.4%

Question: Which results are given for CC(C)(C)[C@@H]1C=C(C(=O)NCc2nc3ccccc3[nH]2)O[C@H](OCc2ccc(CO)cc2)C1?
Answer: inhibition (at 10 µM): -5.44% (inactive); inhibition (inhibition, at 1 µM): -10.6%

Question: Which inhibition (at 10 µM) does the source give for O=C(NNC(=O)c1cc(-c2ccc(Cl)c(Cl)c2)nc2ccccc12)Nc1ccccc1 here?
Answer: -11.2% (inactive)

Question: What about the inhibition (inhibition, at 1 µM) of the same compound?
Answer: -17.1%

Question: Which inhibition (at 10 µM) does the source give for O=C(NCc1nc2ccccc2[nH]1)C1=C[C@H](c2ccccc2)C[C@H](OCc2ccc(CO)cc2)O1 here?
Answer: 12.7% (inactive)

Question: What about the inhibition (inhibition, at 1 µM) of the same compound?
Answer: -8.08%

Question: Which inhibition (at 10 µM) does the source give for Clc1ccc(OCCSCc2nc3ccccc3[nH]2)cc1 here?
Answer: -5.52% (inactive)

Question: What about the inhibition (inhibition, at 1 µM) of the same compound?
Answer: -20%

Question: How did the inhibition (at 10 µM) turn out when O=C(CN1CCSC1=NCc1ccccc1)c1ccc(Cl)c(Cl)c1 was run?
Answer: -25.5% (inactive)

Question: What about the inhibition (inhibition, at 1 µM) of the same compound?
Answer: -25.1%

Question: What does the source list for O=C(N/C(=C\c1cccnc1)c1nc2ccccc2[nH]1)c1cccc(Br)c1?
Answer: inhibition (at 10 µM): 4.89% (inactive); inhibition (inhibition, at 1 µM): -19.7%

Question: Which inhibition (at 10 µM) does the source give for O=C(NCc1nc2ccccc2[nH]1)C1=C[C@@H](c2ccc3c(c2)OCO3)C[C@@H](OCCCCO)O1 here?
Answer: -0.58% (inactive)

Question: What about the inhibition (inhibition, at 1 µM) of the same compound?
Answer: -3.63%

Question: With Cc1ccc(NC(=O)CN(C)C(=O)CCSc2ccc(F)cc2)cc1 as the compound, how does the inhibition (at 10 µM) read?
Answer: -21.5% (inactive)

Question: And the inhibition (inhibition, at 1 µM)?
Answer: -35.7%

Question: For O=C(NCc1nc2ccccc2[nH]1)C1=C[C@H](c2ccc(Br)cc2)C[C@H](OCCCCO)O1, which inhibition (at 10 µM) is on record?
Answer: -2.4% (inactive)

Question: What about the inhibition (inhibition, at 1 µM) of the same compound?
Answer: -6.37%

Question: How did the inhibition (at 10 µM) turn out when COc1ccc(OCC(O)CNC(=O)Nc2ccc(Cl)cc2)cc1 (stereo not drawn) was run?
Answer: 0.31% (inactive)

Question: And the inhibition (inhibition, at 1 µM)?
Answer: -6.26%

Question: O=C(NNC(=O)c1ccc(-n2cncn2)c([N+](=O)[O-])c1)c1ccc(Cl)cc1 was tested. Which inhibition (at 10 µM) did it give?
Answer: -21.4% (inactive)

Question: And the inhibition (inhibition, at 1 µM)?
Answer: -30.3%

Question: For O=C(NCc1nc2ccccc2[nH]1)C1=C[C@H](c2csc3ccccc23)C[C@H](OCCCCO)O1, which inhibition (at 10 µM) is on record?
Answer: 2.21% (inactive)

Question: And the inhibition (inhibition, at 1 µM)?
Answer: -9.21%

Question: O=C(C[C@H]1C(=O)N(Cc2ccccc2)C[C@@H]1c1ccc(Br)cc1)Nc1ccc(Br)cc1 was tested. Which inhibition (at 10 µM) did it give?
Answer: -8.54% (inactive)

Question: And the inhibition (inhibition, at 1 µM)?
Answer: -13%

Question: Which results are given for O=C(NCc1nc2ccccc2[nH]1)C1=C[C@@H](c2ccc(Br)cc2)C[C@@H](OCc2ccc(CO)cc2)O1?
Answer: inhibition (at 10 µM): 16.7% (inactive); inhibition (inhibition, at 1 µM): -11.6%

Question: What does the source list for CC(C)OCCCN1CC(=O)N2C(c3cccc([N+](=O)[O-])c3)c3[nH]c4ccccc4c3C[C@H]2C1=O (stereo partly drawn)?
Answer: inhibition (at 10 µM): -3.65% (inactive); inhibition (inhibition, at 1 µM): -24.2%

Question: With O=C(CCC(=O)Nc1cccc([N+](=O)[O-])c1)NN=Cc1cccs1 as the compound, how does the inhibition (at 10 µM) read?
Answer: -14.1% (inactive)

Question: What about the inhibition (inhibition, at 1 µM) of the same compound?
Answer: -28.9%

Question: O=C(NCCc1nc2ccccc2[nH]1)c1ccc(Cl)c([N+](=O)[O-])c1 was tested. Which inhibition (at 10 µM) did it give?
Answer: 25.5% (inactive)

Question: What about the inhibition (inhibition, at 1 µM) of the same compound?
Answer: 2.97%

Question: For O=C(CC=NOCc1ccc([N+](=O)[O-])cc1)Nc1ccc(Br)cc1, which inhibition (at 10 µM) is on record?
Answer: -6.71% (inactive)

Question: And the inhibition (inhibition, at 1 µM)?
Answer: -22.4%

Question: What does the source list for O=C(Nc1ccc(F)c(Cl)c1)C1CC(=O)n2c(nc3ccccc32)N1 (stereo not drawn)?
Answer: inhibition (at 10 µM): 4.32% (inactive); inhibition (inhibition, at 1 µM): -11.1%

Question: Which inhibition (at 10 µM) does the source give for O=C(NCc1nc2ccccc2[nH]1)C1=C[C@@H](c2ccc(Br)cc2)C[C@@H](OCCCCO)O1 here?
Answer: 29% (inactive)

Question: And the inhibition (inhibition, at 1 µM)?
Answer: -9.46%

Question: For O=C1CC(N(CCc2ccccc2)C(=S)Nc2ccccc2)C(=O)N1c1ccc(Br)cc1 (stereo not drawn), which inhibition (at 10 µM) is on record?
Answer: 25.6% (inactive)

Question: And the inhibition (inhibition, at 1 µM)?
Answer: -25.5%

Question: O=C(CC(=O)Nc1cccc(Cl)c1)NN=Cc1ccccc1 was tested. Which inhibition (at 10 µM) did it give?
Answer: 9.82% (inactive)

Question: And the inhibition (inhibition, at 1 µM)?
Answer: -18.3%

Question: Which inhibition (at 10 µM) does the source give for CN1CC(=O)N2C(c3cccc([N+](=O)[O-])c3)c3[nH]c4ccccc4c3C[C@H]2C1=O (stereo partly drawn) here?
Answer: 14% (inactive)

Question: And the inhibition (inhibition, at 1 µM)?
Answer: -17.1%

Question: What does the source list for C[C@H](O)[C@@H]1C(=O)N2CCc3c([nH]c4ccccc34)[C@@H]2C[C@@H]1N(C)Cc1ccc2c(c1)OCO2?
Answer: inhibition (at 10 µM): 24.8% (inactive); inhibition (inhibition, at 1 µM): -17.7%

Question: Which results are given for O=C(NCc1nc2ccccc2[nH]1)C1=C[C@@H](c2ccccc2)C[C@@H](OCc2ccc(CO)cc2)O1?
Answer: inhibition (at 10 µM): 15.8% (inactive); inhibition (inhibition, at 1 µM): -16.8%

Question: With CCOC(=O)N1CCC(Nc2c(Nc3ccc(F)cc3)c(=O)c2=O)CC1 as the compound, how does the inhibition (at 10 µM) read?
Answer: -4.56% (inactive)

Question: What about the inhibition (inhibition, at 1 µM) of the same compound?
Answer: -8.53%

Question: Which results are given for CC(=O)c1c[nH]c(C(=O)NCc2cccc(C(F)(F)F)c2)c1?
Answer: inhibition (at 10 µM): 43.8% (inactive); inhibition (inhibition, at 1 µM): -7.99%

Question: What does the source list for O=C1CC(SCc2nc3ccccc3[nH]2)C(=O)N1c1cccc(Cl)c1 (stereo not drawn)?
Answer: inhibition (at 10 µM): -0.68% (inactive); inhibition (inhibition, at 1 µM): -4.5%

Question: With Cc1[nH]c2ccc(Br)cc2c(=O)c1CN1CCCCCC1 as the compound, how does the inhibition (at 10 µM) read?
Answer: -11% (inactive)

Question: What about the inhibition (inhibition, at 1 µM) of the same compound?
Answer: -31.2%

Question: What does the source list for CCCCCCCCCC1NC(C(=O)O)Cc2c1[nH]c1ccccc21 (stereo not drawn)?
Answer: inhibition (at 10 µM): 9.9% (inactive); inhibition (inhibition, at 1 µM): -2.41%

Question: Which inhibition (at 10 µM) does the source give for CN(CC(=O)Nc1ccc(Cl)cc1)C(=O)c1ccc(-n2cncn2)c([N+](=O)[O-])c1 here?
Answer: -19.1% (inactive)

Question: What about the inhibition (inhibition, at 1 µM) of the same compound?
Answer: -36.7%

Question: With CC(CC(=O)Nc1cccc(Br)c1)=NNC(=O)c1ccc(O)cc1O as the compound, how does the inhibition (at 10 µM) read?
Answer: 4.55% (inactive)

Question: What about the inhibition (inhibition, at 1 µM) of the same compound?
Answer: -24.6%

Question: Which results are given for O=C(NCc1nc2ccccc2[nH]1)C1=C[C@@H](c2csc3ccccc23)C[C@@H](OCCCCO)O1?
Answer: inhibition (at 10 µM): 6.67% (inactive); inhibition (inhibition, at 1 µM): -15%

Question: What does the source list for CCO[C@H]1OC(C(=O)NCc2nc3ccccc3[nH]2)=C[C@@H](c2ccc(Br)cc2)[C@@H]1CCCO?
Answer: inhibition (at 10 µM): 11.7% (inactive); inhibition (inhibition, at 1 µM): -15%

Question: With O=C(NCc1nc2ccccc2[nH]1)C1=C[C@H](C2CC2)C[C@H](OCc2ccc(CO)cc2)O1 as the compound, how does the inhibition (at 10 µM) read?
Answer: 12.6% (inactive)

Question: And the inhibition (inhibition, at 1 µM)?
Answer: 7.99%

Question: O=C(Cn1cnc2ccccc21)Nc1cccc([N+](=O)[O-])c1 was tested. Which inhibition (at 10 µM) did it give?
Answer: -2.2% (inactive)

Question: What about the inhibition (inhibition, at 1 µM) of the same compound?
Answer: -15.4%

Question: What does the source list for CN(Cc1cc(Cl)cc(Cl)c1)[C@H]1C[C@H]2c3[nH]c4ccccc4c3CCN2C(=O)[C@H]1CO?
Answer: inhibition (at 10 µM): 80.3%; inhibition (inhibition, at 1 µM): 14%

Question: How did the inhibition (at 10 µM) turn out when O=C(CC=NOCc1ccc([N+](=O)[O-])cc1)Nc1ccc(Cl)cc1 was run?
Answer: 1.47% (inactive)

Question: And the inhibition (inhibition, at 1 µM)?
Answer: -13%

Question: Which inhibition (at 10 µM) does the source give for Clc1ccc(-c2nnc(SCc3nc4ccccc4[nH]3)o2)c(Cl)c1 here?
Answer: 41.9% (inactive)

Question: And the inhibition (inhibition, at 1 µM)?
Answer: -3.17%

Question: Which results are given for COc1ccccc1-n1c(SCC(=O)Nc2ccc(Cl)cc2)nc(O)c(Cc2ccccc2)c1=O?
Answer: inhibition (at 10 µM): -19.7% (inactive); inhibition (inhibition, at 1 µM): -31.6%

Question: For Brc1cnc2nc(SCc3nc4ccccc4[nH]3)[nH]c2c1, which inhibition (at 10 µM) is on record?
Answer: -14.2% (inactive)

Question: What about the inhibition (inhibition, at 1 µM) of the same compound?
Answer: -21.5%

Question: CC(C)(C)[C@H]1C=C(C(=O)NCc2nc3ccccc3[nH]2)O[C@@H](OCc2ccc(CO)cc2)C1 was tested. Which inhibition (at 10 µM) did it give?
Answer: 10.3% (inactive)

Question: And the inhibition (inhibition, at 1 µM)?
Answer: -20.5%

Question: Which inhibition (at 10 µM) does the source give for Oc1c(Cl)cc(Cl)cc1CNc1nc2ccccc2[nH]1 here?
Answer: 31.4% (inactive)

Question: And the inhibition (inhibition, at 1 µM)?
Answer: -0.2%
